From publication PMC6268294, “Synthesis of Chalcones with Anticancer Activities” (Molecules, 2012)
Values after ≈ are worked out from the molar mass of the structure shown. Like-named read-outs stand apart in the source and are kept apart here.

Experiments:
[1] = test system: human adenocarcinoma cell line HT-29 (colorectal cancer); test: MTT cell viability assay, HT-29; type: cell-based; conditions: 24 h treatment
Protocol: (§1) A549, PC3, MCF-7, HT-29, WRL68 and MCF-7 cells were obtained from the ATTC (Rockville, MD, USA) and grown in RPMI-1640 medium, 10% fetal bovine serum (FBS) and 1% pen-strep, in humidified conditions at 5% CO2 and 37 °C. The different cell lines mentioned above were used to determine the inhibitory effects of compounds on cell growth using the MTT assay. This colorimetric assay is based on the conversion of the yellow tetrazolium bromide (MTT) to a purple formazan derivative by mitochondrial succinate dehydrogenase in viable cells. Cells were seeded in 96-well plate and incubated for 24 h at 37 °C with 5% CO2 saturation. After incubation, the cells were treated with different concentration of compounds and incubated for another 24 h. After 24 h of drug treatment, 20 µL of MTT solution at 5 mg/mL was added and incubated for 4 h. Dimethyl sulfoxide (DMSO) in volume of 100 µL is added into each well to dissolve the purple formazan formed. The colorimetric assay is measured and recorded at absorbance of 570 nm.

[2] = test system: human lung adenocarcinoma cell line A549; test: MTT cell viability assay, A549; type: cell-based; conditions: 24 h treatment
Protocol: as §1

[3] = test system: human normal liver cell line WRL-68; test: MTT cell viability assay, WRL68; type: cell-based; conditions: 24 h treatment
Protocol: as §1

[4] = test system: human prostate cancer cell line PC3; test: MTT cell viability assay, PC3; type: cell-based; conditions: 24 h treatment
Protocol: as §1

[5] = test system: human breast adenocarcinoma cell line MCF-7; test: MTT cell viability assay, MCF-7; type: cell-based; conditions: MCF7, 24 h treatment
Protocol: as §1

[6] = test system: MCF-7 (breast), A549 (lung), PC3 (prostate), HT-29 (colorectal) and WRL68 (liver); test: MTT assay, summary over all five cell lines; type: cell-based, human; conditions: for IC50: Homo sapiens
Protocol: as §1

[7] = test system: caspase-8 in MCF-7 cells; test: Caspase-Glo-8 activity; type: cell-based, human; conditions: MCF-7, 24 h, highest concentrations (6 µg/mL; 25: 4 µg/mL); control printed 50892 RLU; p < 0.05
Protocol: Due to the observation of significant cytotoxicity of selected compounds towards MCF-7 cells, the following analyses were done on them only. Cells were treated with compound 1 (1A- 3 µg/mL; 1B- 6 µg/mL), 23 (23A- 3 µg/mL; 23B- 6 µg/mL), 25 (25A- 2 µg/mL; 25B- 4 µg/mL) and 5 (5A- 3 µg/mL; 5B- 6 µg/mL).
Activity of cellular caspases was measured using the Caspase-Glo-9, Caspase-Glo-3/7 and Caspase-Glo-8 assay reagents (Promega), according to the manufacturer's instructions. The assays provide a luminogenic caspase-3/caspase-7 or caspase-8 or caspase-9 substrate, respectively, in a buffer system optimized for caspase activity measurement in cell lysates. The luciferase signal generated is proportional to the amount of caspase activity present. MCF-7 cells have no caspase-3 activity due to functional deletion of the CASP-3 gene. Therefore, the activity measured in this test is that of caspase-7. Briefly, cells were plated in opaque 96-well plates in triplicate and treated with […]. After 24 h treatment with compounds 1, 23, 25 and 5 as mentioned before, the assay reagents were added to the plates at room temperature and incubated for 60 min, and the luminescence was measured using a plate reader. All assays were done in triplicate, and means ± SD were calculated for each condition.

[8] = test system: MCF-7 cells; test: Multiparametric high content screening (HCS) cytotoxicity/apoptosis assay; type: cell-based, human
Protocol: The toxic effects of Cpd 1, 5, 23 and 25 at different doses on MCF-7 cells were assayed using the high content screening (HCS) KineticScan Reader (Cellomics Inc, Pittsburgh, PA, USA) with the Multiparameter Cytotoxicity Kit 3. The kit contains four fluorescent dyes, i.e., blue fluorescent Hoechst 33342, membrane permeability, mitochondrial membrane potential, and cytochrome c dyes. They respectively detect changes in nuclear morphology (nuclear condensation), membrane permeability, mitochondrial membrane potential and expression of cytochrome c. The multiparametric apoptosis kit quantifies three fundamental parameters related to the process of apoptosis, i.e., nuclear condensation detected by the blue fluorescent nuclear dye, Hoechst 33342, cell permeability detected by permeability dye, mitochondrial damage detected by mitochondrial membrane potential dye and cytochrome c release by DyLight 649 Conjugates. Following treatment with different concentrations of compounds 1, 23, 25 and 5 as mentioned before, the fixation and staining for imaging analysis of the MCF-7 cells were performed according to the manufacturer’s instructions. […] Plates were analyzed using a Thermo Scientific ArrayScanHVTI HCS Reader (Cellomics Inc, Pittsburgh, PA, USA). This is a computerized automated fluorescence imaging microscope that automatically identifies stained cells and measures the intensity and distribution of fluorescence in individual cells. Images for each fluoroprobe were acquired at different channels using suitable filters with 20x objective at fixed exposure time. The Cell Health Profiling BioApplication software was used for image acquisitions and analysis. For each well, at least 25 fields, corresponding to at least 500 cells were automatically acquired and analyzed. All experiments were performed in triplicates. Cell average intensity (Mean) under the modified object mask within selected range in each channel was used as assay indicator, and reported as average fluorescence intensity.

[9] = all five cell lines, MTT, read-out: IC50 in all cell lines
[10] = all cell lines except for the A549 cell line, MTT, read-out: IC50 in all cell lines except A549
[11] = MCF-7, compounds 2-6 µg/mL, tamoxifen 0.04 µg/mL, vs control

Structure (SMILES)	IC50 [1] [µg/mL]	IC50 [2] [µg/mL]	IC50 [3] [µg/mL]	IC50 [4] [µg/mL]	IC50 [5] [µg/mL]	cytotoxic effect in words ([6]; all cell lines, MTT)	melting point [°C]	cytotoxic effect in words [6]	IC50 [6, 9] [µg/mL]	IC50 [6, 10] [µg/mL]	caspase-8 activity at highest concentration [7]	cell (membrane) permeability [8, 11]	cytochrome c release [8, 11]	mitochondrial membrane potential [8, 11]	total nuclear intensity (Hoechst 33342 nuclear chromatin staining) [8, 11]	cell loss ([8]; MCF-7, compounds 2-6 µg/mL, data not shown)	apoptosis in MCF-7 cells ([8]; shown by multiparameter cytotoxicity assay and caspase-3/7, -8, -9 activities, p < 0.05)
O=C(/C=C/c1ccccc1)c1ccc(O)cc1 [Compound 2, 1-(4-Hydroxyphenyl)-3-phenylpropenone]	> 100	> 100	> 100	> 100	> 100	low cytotoxic effects	–	–	–	–	–	–	–	–	–	–	–
Cc1ccc(C(=O)/C=C/c2ccccc2)cc1 [Compound 3, 3-Phenyl-1-p-tolylpropenone]	19.1 ± 1 (≈ 85.9 µM)	36.6 ± 1.76 (≈ 165 µM)	21.3 ± 3.01 (≈ 96 µM)	17.3 ± 1.1 (≈ 77.8 µM)	13.6 ± 1.01 (≈ 61.3 µM)	–	–	–	–	–	–	–	–	–	–	–	–
COc1ccc(C(=O)/C=C/c2ccccc2)cc1 [Compound 4, 1-(4-Methoxyphenyl)-3-phenylpropenone]	37.3 ± 2.81 (≈ 156 µM)	77 ± 2.1 (≈ 323 µM)	57.3 ± 3.8 (≈ 240 µM)	21.1 ± 1.24 (≈ 88.7 µM)	19.1 ± 1 (≈ 80.4 µM)	–	–	–	–	–	–	–	–	–	–	–	–
O=C(/C=C/c1ccccc1Cl)c1ccc(O)cc1 [Compound 6, 3-(2-Chlorophenyl)-(4-hydroxyphenyl)-propenone]	15.5 (≈ 60 µM)	25.2 ± 1.21 (≈ 97.5 µM)	13.2 ± 1.3 (≈ 51.1 µM)	11 ± 1.8 (≈ 42.5 µM)	10 ± 1.4 (≈ 38.7 µM)	–	–	–	–	–	–	–	–	–	–	–	–
Cc1ccc(C(=O)/C=C/c2ccccc2Cl)cc1 [Compound 7, 3-(2-Chlorophenyl)-1-P-tolylpropenone]	> 100	> 100	> 100	> 100	> 100	–	50 to 51	low cytotoxic effects	–	–	–	–	–	–	–	–	–
COc1ccc(C(=O)/C=C/c2ccccc2Cl)cc1 [Compound 8, 3-(2-Chlorophenyl)-1-(4-methoxy-phenyl)propenone]	> 100	> 100	> 100	> 100	> 100	–	–	low cytotoxic effects	–	–	–	–	–	–	–	–	–
Cc1cccc(/C=C/C(=O)c2ccccc2)c1 [Compound 9, 1-Phenyl-3-m-tolylpropenone]	19 ± 1.5 (≈ 85.3 µM)	24.7 ± 2 (≈ 111 µM)	9.78 ± 1.01 (≈ 44 µM)	9.4 ± 1.9 (≈ 42.3 µM)	9.34 ± 0.56 (≈ 42 µM)	–	68 to 70	–	–	–	–	–	–	–	–	–	–
Cc1cccc(/C=C/C(=O)c2ccc(O)cc2)c1 [Compound 10, 1-(4-Hydroxyphenyl)-3-m-tolylpropenone]	12.1 ± 3 (≈ 50.8 µM)	19.7 ± 1.22 (≈ 82.6 µM)	13.4 ± 2.09 (≈ 56.4 µM)	13.7 ± 1.1 (≈ 57.5 µM)	8.34 ± 0.472 (≈ 35 µM)	–	–	high cytotoxicity	< 20	–	–	–	–	–	–	–	–
Cc1ccc(C(=O)/C=C/c2cccc(C)c2)cc1 [Compound 11, 3-m-Tolyl-1-p-tolylpropenone]	16.3 ± 1.9 (≈ 69 µM)	24.9 ± 1.9 (≈ 105 µM)	13.9 ± 1.3 (≈ 59 µM)	8.73 ± 0.21 (≈ 36.9 µM)	10.2 ± 1.89 (≈ 43 µM)	–	–	–	–	< 20	–	–	–	–	–	–	–
COc1ccc(C(=O)/C=C/c2cccc(C)c2)cc1 [Compound 12, 1-(4-Methoxyphenyl)-3-m-tolylpropenone]	15.8 ± 2.1 (≈ 62.5 µM)	31.8 ± 1.5 (≈ 126 µM)	11.1 ± 1.8 (≈ 44.1 µM)	9.87 ± 0.71 (≈ 39.1 µM)	9.53 ± 1.99 (≈ 37.8 µM)	–	74 to 75	–	–	< 20	–	–	–	–	–	–	–
COc1ccc(/C=C/C(=O)c2ccccc2)cc1 [Compound 13, 3-(4-Methoxyphenyl)-1-phenylpropenone]	22.8 ± 2.3 (≈ 95.6 µM)	32.6 ± 2.5 (≈ 137 µM)	21.5 ± 1.7 (≈ 90.1 µM)	12.1 ± 0.99 (≈ 50.7 µM)	11.62 ± 0.101 (≈ 48.8 µM)	–	–	–	–	–	–	–	–	–	–	–	–
COc1ccc(/C=C/C(=O)c2ccc(O)cc2)cc1 [Compound 14, 1-(4-Hydroxyphenyl)-3-(4-methoxyphenyl)-propenone]	> 100	> 100	> 100	> 100	> 100	–	–	low cytotoxic effects	–	–	–	–	–	–	–	–	–
COc1ccc(/C=C/C(=O)c2ccc(C)cc2)cc1 [Compound 15, 3-(4-Methoxyphenyl)-1-p-tolylpropenone]	29.6 ± 2.8 (≈ 117 µM)	> 100	50.9 ± 3.51 (≈ 202 µM)	43.3 ± 4.01 (≈ 171 µM)	32.4 ± 1.88 (≈ 128 µM)	–	–	–	–	–	–	–	–	–	–	–	–
COc1ccc(/C=C/C(=O)c2ccc(OC)cc2)cc1 [Compound 16, 1,3-Bis-(4-Methoxyphenyl)-propenone]	67.1 ± 4.1 (≈ 250 µM)	> 100	60.8 ± 4.22 (≈ 227 µM)	> 100	41.4 ± 1.91 (≈ 154 µM)	–	–	–	–	–	–	–	–	–	–	–	–
CN(C)c1ccc(/C=C/C(=O)c2ccccc2)cc1 [Compound 17, 3-(4-Dimethylaminophenyl)-1-phenyl-propenone]	64.3 ± 5.02 (≈ 256 µM)	> 100	> 100	> 100	99.3 ± 6.16 (≈ 395 µM)	–	–	–	–	–	–	–	–	–	–	–	–
CN(C)c1ccc(/C=C/C(=O)c2ccc(O)cc2)cc1 [Compound 18, 3-(4-Dimethylaminophenyl)-1-(4-hydroxy-phenyl)-propenone]	> 100	> 100	> 100	> 100	> 100	low cytotoxic effects	–	–	–	–	–	–	–	–	–	–	–
Cc1ccc(C(=O)/C=C/c2ccc(N(C)C)cc2)cc1 [Compound 19, 3-(4-Dimethylaminophenyl)-1-p-tolyl-propenone]	69.5 ± 4.23 (≈ 262 µM)	58.5 ± 3.2 (≈ 221 µM)	39.8 ± 3.9 (≈ 150 µM)	> 100	57.3 ± 3.1 (≈ 216 µM)	–	124 to 125	–	–	–	–	–	–	–	–	–	–
COc1ccc(C(=O)/C=C/c2ccc(N(C)C)cc2)cc1 [Compound 20, 3-(4-Dimethylaminophenyl)-1-(4-methoxy-phenyl)-propenone]	> 100	78.8 ± 4.4 (≈ 280 µM)	> 100	> 100	> 100	–	–	low cytotoxic effects	–	–	–	–	–	–	–	–	–
O=C(/C=C/c1ccccc1O)c1ccccc1 [Compound 21, 3-(2-Hydroxyphenyl)-1-phenylpropenone]	19.8 ± 2.01 (≈ 88.5 µM)	22.6 ± 1.1 (≈ 101 µM)	17 ± 1.7 (≈ 75.9 µM)	11.1 ± 0.4 (≈ 49.4 µM)	9.35 ± 1.2 (≈ 41.7 µM)	–	–	–	–	< 20	–	–	–	–	–	–	–
O=C(/C=C/c1ccccc1O)c1ccc(O)cc1 [Compound 22, 3-(2-Hydroxyphenyl)-1-(4-hydroxyphenyl)-propenone]	> 100	> 100	> 100	> 100	> 100	–	287 to 289	low cytotoxic effects	–	–	–	–	–	–	–	–	–
COc1ccc(C(=O)/C=C/c2ccccc2O)cc1 [Compound 24, 3-(2-Hydroxyphenyl)-1-(4-methoxyphenyl)-propenone]	11.4 ± 1 (≈ 44.9 µM)	14.2 ± 1 (≈ 55.7 µM)	8.72 ± 1 (≈ 34.3 µM)	5.58 ± 0.2 (≈ 22 µM)	7.15 ± 0.4 (≈ 28.1 µM)	–	–	high cytotoxicity	< 20	–	–	–	–	–	–	–	–
O=C(/C=C/c1cccc(Cl)c1)c1ccccc1 [Compound 25, 3-(3-Chlorophenyl)-1-phenylpropenone]	7.77 ± 1.1 (≈ 32 µM)	14.5 ± 0.2 (≈ 59.7 µM)	7.72 ± 1.6 (≈ 31.8 µM)	6.94 ± 0.61 (≈ 28.6 µM)	5.25 ± 0.67 (≈ 21.6 µM)	–	–	high cytotoxicity	< 20	–	18,356 RLU	increased cell permeability	cytochrome c release from mitochondria	loss of mitochondrial membrane potential	increased total nuclear intensity	statistically significant cell loss	capable in eliciting apoptosis
CC/C(=C(\c1ccccc1)c1ccc(OCCN(C)C)cc1)c1ccccc1 [tamoxifen, reference compound]	–	–	–	–	–	–	–	–	–	–	–	–	found to increase	reduction in mitochondrial membrane potential dye retention	increase in nuclear chromatin staining	–	–
